# Where two headings read alike, the source gives them in different places.
# What was measured:
# Assay in all cases: SPR binding to immobilized biotinylated RNA
# [1] = test system: (CUG)10 RNA (SEQ ID NO: 3); details: for ka / kd / Kd / Residence time (t1/2) for compound binding to RNA / Off-rates (koff) / On-rates (kon) / apparent KD: (CUG)10; for sequence selectivity: CUG repeats versus other RNAs
# Procedure: (§1) SPR binding measurements were performed on a Biacore-X instrument (Biacore, Inc., Uppsala, Sweden) with two flow channels (FC1 and FC2). 5′-Biotinylated-RNA sequences, with a C6 linker separating the biotin label from the RNA (Integrated DNA Technologies Inc.) were immobilized on streptavidin (Rockland Immunochemicals) functionalized carboxylmethyl dextran coated sensor chips (CM5, G.E. Healthcare) using EDC/NHS (Advanced ChemTech) coupling chemistry. Filtered (0.2μ), degassed and autoclaved HBS-N buffer (0.01M Hepes, pH=7.4, 0.15 M NaCl) was employed as sample and as running buffer for all SPR experiments. A typical protocol for an experiment is as follows: A CM5 sensor chip was allowed to equilibrate to room temperature and then docked into the instrument. Following priming with running buffer, FC1 and FC2 were conditioned by manual injection of 20 μL aqueous NaOH (50 mM) at a flow rate of 30 μL/min. This was repeated 3 times followed by a wash command. Next, the carboxyl groups on the sensor chip surface in both flow cells were activated separately by injecting 60 μL of freshly prepared 1:1 mixture of EDC (0.4 M) and NHS (0.1 M) at a 5 μL/min flow rate followed by a wash. […] After washing, the surface was deactivated with 60 μL injection of ethanolamine (1M, pH=8.5) at 5 μL/min. The flow cells were primed, and the streptavidin surface in FC1 alone was blocked with 30 μL of biotin (20 μM in HBS-N) at 5 μL/min. The RNA (200 nM in running buffer, HBS-N) to be immobilized was unfolded by heating above its predicted melting temperature in a heated block for 2 min and then allowed to refold by cooling gradually to room temperature. The RNA was then immobilized in FC2 alone to response units ranging from 200-1000 RU using a 5 μL/min flow rate. Representative sensorgrams for the immobilization procedure is shown in FIGS. 2A-B. Two 20 μL aliquots of NaCl (0.5 M) were injected at a 30 μL/min flow rate to remove non-specifically bound RNA. The level of RNA immobilized was noted when the baseline was stable, usually after repeated buffer injection followed by a “prime” command. Binding measurements were performed by flowing various concentrations of the compounds to be analyzed over the immobilized RNA and recording the reference-subtracted (FC2−FC1) sensorgrams. For kinetic analysis, at least five sensorgrams corresponding to different concentrations of compound (usually ranging from 0.05-1 μM in HBS-N) were obtained using flow rates of either 60 μL/min or 30 μL/min. The experimental sensorgrams were globally fitted to a 1:1 binding equation (Biaevaluation software) to obtain association rates (ka) and dissociation rates ([…]) as well as equilibrium binding constants (KD). To measure the binding stoichiometry (n), the relations in equations (1-3) below were used: […]
# (§2) where RUmax is the maximum resonance response unit at saturation, RURNA is the amount RU of RNA immobilized, n is the stoichiometry, MWcompound and MWRNA are molecular weights of compound and RNA respectively, and RUeq represents the resonance response at steady-state (equilibrium). The response units at equilibrium were subjected to Scatchard binding plots of (r/Cfree vs. r).
# This technique allows the association and dissociation rates (ka and kd), equilibrium binding constants (KD), and the binding stoichiometry (n) to be measured in a label-free format (Liu and Wilson, “Quantitative Analysis of Small Molecule-nucleic Acid Interactions with a Biosensor Surface and Surface Plasmon Resonance Detection,” Methods Mol. Biol. 613:1-23 (2010), which is hereby incorporated by reference in its entirety).
# [2] = test system: (CUG)2 RNA (SEQ ID NO: 1); details: Table 7, SPR
# Procedure: as §1, §2
# (§3) The binding characteristics of compounds 3-11 were evaluated against pathogenic CUG^exp RNA and other RNA sequences by SPR. This technique allows the association and dissociation rates (ka and kd), equilibrium binding constants (KD), and the binding stoichiometry (n) to be measured in a label-free format (Liu and Wilson, “Quantitative Analysis of Small Molecule-nucleic Acid Interactions with a Biosensor Surface and Surface Plasmon Resonance Detection,” Methods Mol. Biol. 613:1-23 (2010), which is hereby incorporated by reference in its entirety). […]
# [3] = test system: HIV-1 FSS RNA (SEQ ID NO: 7)
# Procedure: as §1
# as §2, with “r). […]” for “r).”
# SPR and fluorescence titration experiments, performed using the protocol described in Examples 3 and 4 above, except using as the target a highly conserved RNA sequence responsible for regulating the production of the Gag-Pol polyprotein via a −1 ribosomal frameshift, which occurs along a “slippery sequence” in gag-pol mRNA (SEQ ID NO: 7). This “frameshift stimulatory sequence” (or “HIV-1 FSS”) consists of an upper stemloop and a lower stem, separated by a purine bulge in the most common types of HIV (FIG. 19). For the fluorescent titration experiments, the upper stemloop of SEQ ID NO: 7 was employed. Cell uptake and toxicity studies were carried out using human fibroblasts according to Example 5 above.
# [4] = test system: (CCUG)10 RNA (SEQ ID NO: 4); details: for Residence time (t1/2) for compound binding to RNA / Off-rates (koff) / On-rates (kon): (CCUG)10
# Procedure: as §1, §2, §3
# [5] = test system: (CAG)10 RNA (SEQ ID NO: 5); details: for Off-rates (koff) / On-rates (kon): SPR
# Procedure: as §1, §2, §3
# [6] = test system: CUG-CAG duplex ("Duplex") (SEQ ID NO: 6); details: Duplex
# Procedure: as §1, §2, §3
Compound,"ka ([1]; Table 7, SPR)","kd ([1]; Table 7, SPR)","Kd ([1]; Table 7, SPR, read-out: KD) [nM]",Residence time (t1/2) for compound binding to RNA [1] [s],Off-rates (koff) ([1]; SPR) [s⁻¹],On-rates (kon) ([1]; SPR) [M⁻¹ s⁻¹],Residence time (t1/2) for compound binding to RNA [4] [s],Off-rates (koff) ([4]; SPR) [s⁻¹],On-rates (kon) ([4]; SPR) [M⁻¹ s⁻¹],also measured
CCc1nc2cc3ccccc3cc2cc1C(=O)N1CCC[C@H]1C(=O)N[C@@H](C/C=C/C[C@H](NC(=O)[C@@H]1CCCN1C(=O)c1cc2cc3ccccc3cc2nc1CC)C(=O)N(C)[C@@H](CCCCN)C(=O)NCCCN)C(=O)N(C)[C@@H](CCCCN)C(=O)NCCCN [20 (E)],ka = 1.8 ± 0.9E+4/M * s,kd = 1.4 ± 0.6E−3/s,83,–,–,–,–,–,–,–
CCc1nc2cc3ccccc3cc2cc1C(=O)N1CCC[C@H]1C(=O)N(C)[C@@H](C/C=C\C[C@@H](C(=O)N[C@@H](CCCCN)C(=O)NCCCN)N(C)C(=O)[C@@H]1CCCN1C(=O)c1cc2cc3ccccc3cc2nc1CC)C(=O)N[C@@H](CCCCN)C(=O)NCCCN [21 (Z)],ka = 1.6 ± 0.3E+4/M * s,kd = 1.6 ± 0.1E−3/s,102,–,–,–,–,–,–,–
CCc1nc2cc3ccccc3cc2cc1C(=O)N1CCC[C@H]1C(=O)N(C)[C@@H](C/C=C/C[C@@H](C(=O)N(C)[C@@H](CCCCN)C(=O)NCCCN)N(C)C(=O)[C@@H]1CCCN1C(=O)c1cc2cc3ccccc3cc2nc1CC)C(=O)N(C)[C@@H](CCCCN)C(=O)NCCCN [22 (E)],bka = 1.2 ± 0.3E+4/M * s,kd = 8.7 ± 0.3E−4/s,72,–,–,–,–,–,–,ka [2]: ka = 1.9 ± 0.4E+4/M * s; kd [2]: kd = 8 ± 4E−4/s
CCc1nc2cc3ccccc3cc2cc1C(=O)N1CCC[C@H]1C(=O)N(C)[C@@H](C/C=C\C[C@@H](C(=O)N(C)[C@@H](CCCCN)C(=O)NCCCN)N(C)C(=O)[C@@H]1CCCN1C(=O)c1cc2cc3ccccc3cc2nc1CC)C(=O)N(C)[C@@H](CCCCN)C(=O)NCCCN [22 (Z)],ka = 9.2 ± 0.4E+3/M * s,kd = 3 ± 2E−3/s,378,–,–,–,–,–,–,–
NCCCC[C@H](NC(=O)[C@H](C/C=C\C[C@H](NC(=O)[C@@H]1CCCN1)C(=O)N[C@@H](CCCCN)C(=O)NCCCN)NC(=O)[C@@H]1CCCN1)C(=O)NCCCN [Compound 6],–,–,–,19.91,0.0348,132000,2.32,0.299,13600,Residence time (t1/2) for compound binding to RNA [3]: 26.96 s; Off-rates (koff) ([3]; SPR): 0.0257 s⁻¹; On-rates (kon) ([3]; SPR): 221000 M⁻¹ s⁻¹; apparent KD ([1]; SPR): modest affinity; sequence selectivity ([1]; SPR): neither displayed any selectivity; Residence time (t1/2) for compound binding to RNA [5]: 36.09 s; Off-rates (koff) [5]: 0.0192 s⁻¹; On-rates (kon) [5]: 125000 M⁻¹ s⁻¹
CCc1nc2cc3ccccc3cc2cc1C(=O)N[C@@H](CCCCN)C(=O)N[C@@H](C/C=C\C[C@H](NC(=O)[C@H](CCCCN)NC(=O)c1cc2cc3ccccc3cc2nc1CC)C(=O)N1CCC[C@H]1C(=O)NCCCN)C(=O)N1CCC[C@H]1C(=O)NCCCN [Compound 8],–,–,–,228.71,0.00303,24600,152.98,0.00453,15400,apparent KD ([1]; SPR): reduced affinity; sequence selectivity ([1]; SPR): no selectivity for CUG or CCUG repeats relative to duplex CUG-CAG or HIV-1 FSS RNAs; Residence time (t1/2) for compound binding to RNA [6]: 255.72 s; Off-rates (koff) ([6]; SPR): 0.00271 s⁻¹; On-rates (kon) ([6]; SPR): 29000 M⁻¹ s⁻¹; Residence time (t1/2) for compound binding to RNA [5]: 116.86 s; Off-rates (koff) [5]: 0.00593 s⁻¹; On-rates (kon) [5]: 12600 M⁻¹ s⁻¹
CCc1nc2cc3ccccc3cc2cc1C(=O)N[C@@H](C/C=C\C[C@H](NC(=O)c1cc2cc3ccccc3cc2nc1CC)C(=O)N1CCC[C@H]1C(=O)N[C@@H](Cc1ccccc1)C(=O)NCCCN)C(=O)N1CCC[C@H]1C(=O)N[C@@H](Cc1ccccc1)C(=O)NCCCN [Compound 19],–,–,–,–,–,–,–,–,–,"Kd ([3]; SPR, read-out: apparent KD): 102 ± 0.021 nM"
Neomycin [reference compound],–,–,–,13.70,0.0507,125000,3.55,0.195,109000,"Kd ([1]; SPR, read-out: apparent KD): 409.6 ± 0.89 nM; Kd ([4]; SPR, (CCUG)10, running text, read-out: apparent KD): 1960 ± 714 nM"

# From US20140050778A1, “NUCLEIC ACID BINDING COMPOUNDS, METHODS OF MAKING, AND USE THEREOF” (UNIVERSITY OF ROCHESTER, priority 2010, published 2014)
